The values below come from PMC12733967, “Pleiotropic Function of Antenna-Specific Odorant-Binding Protein Links Xenobiotic Adaptation and Olfaction in Leptinotarsa decemlineata” (Insects, 2025).

The term Kd denotes the concentration at which binding is half-saturated. For orientation: IC50 means the concentration needed to halve the response being measured. A low value points to greater potency. One may read the Ki as a measure of affinity in units of concentration, obtained from inhibition or displacement. The term LogP denotes the decadic logarithm of the partition coefficient of the neutral form, usually between octanol and water. By mortality is commonly meant the percentage killed.

Data set [1] deals with LdecOBP33. The experiment in a line: Saturation fluorescence binding assay of 1-NPN with recombinant LdecOBP33. Details: species or system Leptinotarsa decemlineata. The note with it: 2 µM LdecOBP33, 1-NPN 0-25 µM, 20 mM Tris pH 7.4, 25 °C; one-site saturation binding accounting for ligand depletion; read-out: dissociation constant (Kd). Here is the method: (§1) N-phenyl-1-naphthylamine (1-NPN) was used as a fluorescent reporter to assess the ligand-binding affinity of LdecOBP33 toward various plant volatiles and pesticides; this was chosen due to its reported success in prior studies. […] Each assay was performed at 25 ± 1 °C in a 96-well flat-bottom black plate with a final volume of 200 µL and 3 replicates. The relative fluorescence intensity was measured with a 337 nm/10 nm excitation filter and a 413 nm/10 nm emission filter, using a multi-mode Tecan Spark® plate reader. […] The equation Ki=IC50/(1+NPN/KdNPN) was used to calculate the Ki values of the competitor ligands.

For data set [2], the target named is LdecOBP33. The data set is described as follows: Competitive fluorescence displacement binding assay (1-NPN reporter). Details: species or system Leptinotarsa decemlineata. The note with it: for IC50 / displacement of the 1-NPN probe: 2 µM LdecOBP33, 2 µM 1-NPN; for IC50: competitor 0-450 µM, 20 mM Tris pH 7.4, 25 °C, mean ± SE (n = 3); for displacement of the 1-NPN probe: competitor up to 450 µM; for Ki: calculated from IC50 with Cheng and Prusoff equation, Ki=IC50/(1+NPN/KdNPN). Here is the method: as §1

The conditions of data set [3]: ref PubChem database (accessed on 31 October 2025); cited from earlier work.
Data set [4] concerns CPB. The experiment in a line: Whole-antenna contact bioassay with imidacloprid. It counts as in vivo, Leptinotarsa decemlineata. The note with it: for mortality: after 36 h; for mortality / average mortality: 0.5 µL of 0.45 µg/µL per antenna. As to the method: After feeding with RNAi, the control or LdecOBP33 knockdown male CPBs were placed individually into fresh Petri dishes and anesthetized on ice for 10 min. Afterwards, 0.5 µL of an imidacloprid solution (Sigma Aldrich, St. Louis, MO, USA)—at various concentrations—in acetone was topically applied to each antenna of each CPB using a Hamilton 25 µL model #702 syringe (Hamilton, Reno, NV, USA). Care was taken to ensure that the pesticide solution was applied exclusively to the antennae. […] After treatment, all CPBs were placed in a fresh Petri dish with fresh potato leaves; the dish was kept in a rearing room maintained at 25 ± 1 °C, 60 ± 5% humidity, and a 16:8 L/D photoperiod. CPB mortality was assessed at 0, 3, 6, and 12 h, and every 12 h thereafter, for a total of five days post-treatment. The determination of recovery for individual CPBs after pesticide treatment was adapted from prior studies using three criteria. […] Second, beetles were placed prone and given two minutes to flip upright; those unable to do so were classified as dead. Finally, beetles were placed upside down on the handle of a paintbrush to assess their mobility; individuals that could not walk their full body length or fell off were considered dead. Six biological replicates were conducted, each consisting of 8–10 beetles.

The subject of data set [5] is CPB. The experiment in a line: Baseline mortality exposure to imidacloprid in adults, resistant vs susceptible strains. It counts as in vivo, Leptinotarsa decemlineata. The text has this: Two different populations of CPBs were used for this study. The susceptible CPB population was purchased from French Agricultural Research (Lamberton, MN, USA). This population was initially collected in 2003 from Long Island, NY; following this, it was reared in laboratory conditions with no pesticide exposure. Neonicotinoid-resistant CPBs were collected from the University of Maine Aroostook Research Farm (Presque Isle, ME, USA). Baseline mortality exposure to imidacloprid in adults indicated a ~30-fold resistance ratio between the resistant and susceptible strains. Both CPB populations were reared in a Penn State facility greenhouse at 25 ± 1 °C under a 16:8 L/D photoperiod. Beetles were fed a constant supply of Red Norland potato plants and housed in insect and butterfly habitat cages (Restcloud, Guangzhou, China). Eggs were collected from plants and stored in Petri dishes maintained at 25 ± 1 °C and 60 ± 5% humidity under a 16:8 L/D photoperiod, located within a rearing room. Newly emerged first-instar larvae fed upon fresh potato plant leaflets up to the third instar and were then transferred back to the greenhouse.

Regarding `c1ccc(Nc2cccc3ccccc23)cc1` [1-NPN, N-phenyl-1-naphthylamine], on LdecOBP33 [1], the Kd amounted to 4.53 ± 0.31 µM.
As for `CCC/C=C/C=O` [(E)-2-Hexenal], on LdecOBP33 [2], the IC50 was 401 ± 16.3 µM, the “displacement of the 1-NPN probe” value is “over 50%” and the Ki is 301 µM. Besides, the LogP in data set [3] is listed as 1.50.
`CC/C=C/CCO` [(E)-3-Hexen-1-ol]: on LdecOBP33 [2], the IC50 is above 450 µM, the “displacement of the 1-NPN probe” value was “No noticeable displacement” and the Ki was above 338 µM. Further, in data set [3], the LogP is listed as 1.30.
With `CC/C=C\CCOC(=O)CCC` [(Z)-3-Hexenyl-butyrate], at LdecOBP33 [2], the IC50 stood at 24 ± 2.05 µM, the “displacement of the 1-NPN probe” value was “over 50%” and the Ki was 18 µM.
The matching figures for `CNC(=O)Oc1cccc2ccccc12` [Carbaryl]: above 450 µM, “No noticeable displacement” and above 338 µM.
Consider `COP(=S)(OC)Oc1nc(Cl)c(Cl)cc1Cl` [Chlorpyrifos-methyl], for which, at LdecOBP33 [2], the IC50 was determined as 63.7 ± 3.32 µM, the “displacement of the 1-NPN probe” value is “over 50%” and the Ki is 47.8 µM. In addition, in data set [3], the lipophilicity (LogP) is given as 4.30.
As to `CCOP(=S)(OCC)Oc1nc(Cl)c(Cl)cc1Cl` [Chlorpyrifos], on LdecOBP33 [2], the IC50 amounted to 45.8 ± 3.53 µM, the “displacement of the 1-NPN probe” value is given as “over 50%” and the Ki was 34.4 µM. Also, in data set [3], the LogP is on record as 4.96.
`CN/C(=N\[N+](=O)[O-])NCc1cnc(Cl)s1` [Clothianidin]: at LdecOBP33 [2], the IC50 turned out to be 94.5 ± 4.24 µM, the “displacement of the 1-NPN probe” value is “over 50%” and the Ki is 71 µM. For the same compound, in data set [3], the LogP is 0.70.
Turning to `OC[C@H]1OC(O)[C@H](O)[C@@H](O)[C@@H]1O` (stereo partly drawn) [D-Glucose], on LdecOBP33 [2], the IC50 is above 450 µM, the “displacement of the 1-NPN probe” value was “No noticeable displacement” and the inhibition constant (Ki) is above 338 µM.
At LdecOBP33 [2], `O=[N+]([O-])NC1=NCCN1Cc1ccc(Cl)nc1` [Imidacloprid] gave an IC50 of 263 ± 15.2 µM. The “displacement of the 1-NPN probe” value with LdecOBP33 [2] is “over 50%”. Further, the Ki on LdecOBP33 [2] is 197 µM. Besides, in the data set on CPB [4] (by 120 h), the “increase of mortality, dsLdecOBP33-treated vs control” value is reported as 19%. Moreover, the figures for the mortality in the data set with CPB [4] (control (dsGFP) resistant males) and in the data set with CPB [4] (dsLdecOBP33-KD resistant males) were 55% and 81%, respectively. Further, the average mortality in the data set on CPB [4] (control (dsGFP) resistant males, by 120 h) turned out to be 12%; with CPB [4] (dsLdecOBP33-treated resistant males, by 120 h), 32%. The compound further gave an LD50 in the data set on CPB [4] (preliminary tests, 0.5 µL application in acetone to each antenna) of 0.45 µg/µL. In addition, in the data set on CPB [5], the “resistance ratio between the resistant and susceptible strains” value is recorded as ~ 30 fold. For the same compound, the LogP in data set [3] is on record as 0.57.
For `C=C[C@](C)(O)CCC=C(C)C` [L-Linalool], at LdecOBP33 [2], the IC50 was found to be 48.3 ± 1.77 µM, the “displacement of the 1-NPN probe” value is reported as “over 50%” and the Ki was 36.2 µM.
In the case of `COC(=O)c1ccccc1O` [Methyl salicylate], at LdecOBP33 [2], the IC50 was found to be 396 ± 20 µM, the “displacement of the 1-NPN probe” value is listed as “over 50%” and the Ki was 298 µM. For the same compound, in data set [3], the LogP was 2.50.
Turning to `CCCCCCCCC=O` [Nonanal], on LdecOBP33 [2], the IC50 came to 7.29 ± 0.53 µM and the “displacement of the 1-NPN probe” value is “over 50%”. The LogP in data set [3] is reported as 3.30.
For the compound `CC(C)=CC1C(C(=O)OCN2C(=O)C3=C(CCCC3)C2=O)C1(C)C` (stereo not shown) [Tetramethrin], at LdecOBP33 [2], the IC50 was found to be 29.1 ± 1.78 µM, the “displacement of the 1-NPN probe” value is given as “over 50%” and the Ki was 21.8 µM. Besides, in data set [3], the LogP is on record as 4.70.
